For assay [1], the system named is RM-1 mouse prostate cancer cell lines. In words: In vivo mouse xenograft tumor of RM-1 prostate cancer, chlorogenic acid combined with abarelix or degarelix. How it is done:
Test drug: chlorogenic acid, abarelix, degarelix.
Test cell lines: RM-1 mouse prostate cancer cell lines.
(§1) Cells in exponential phase of growth were taken out, digested with trypsin to […], and then cell suspension was prepared by addition of saline.
When the tumor volume in the negative group was about 0.5 cm^3, the experiment was stopped. The mice were sacrificed by cervical dislocation and weighed. The tumors were removed and weighed to calculate the tumor inhibitory rate.

The subject of assay [2] is drug-resistant RM-1 mouse prostate cancer cell lines (abarelix-induced). In words: In vivo mouse xenograft tumor of drug-resistant RM-1 prostate cancer, chlorogenic acid combined with abarelix. Conditions: for Tumor weight: x ± s; for inhibitory rate of mouse xenograft tumor of drug-resistant RM-1 prostate cancer (in words): groups and doses as in Table 3. Here is the method: Test drug: chlorogenic acid, abarelix.
Test cell lines: RM-1 mouse prostate cancer cell lines. RM-1 cell lines were induced by increasing concentration gradient of aberlix and established by clone and screen. Prior to experiment, cell lines were cultured without drug.
Test animals: Kunming mice, ♂, weight 17-24 g.
Drug-resistant cell lines after removal of drug were adjusted to the concentration of 1×10^7/mL with culture medium, and inoculated under the right anterior armpit of mice at 0.1 ml/mouse.
After the mean diameter of tumor reached 100 mm^3, mice were divided into 4 groups, i.e. abarelix group, chlorogenic acid+abarelix group, chlorogenic acid group, and the negative control group, respectively.
Abarelix group: intraperitoneal injection, once every seven days, 15 mg/kg, two doses in total.
chlorogenic acid+abarelix group: chlorogenic acid was intraperitoneally injected, once every day, 10 mg/kg, continuous administration for 5 days; After withdrawal of chlorogenic acid, abarelix was intraperitoneally injected on the next day, once every 7 days, 15 mg/kg, two doses in total.
Chlorogenic acid group: intraperitoneal injection, once every day, 10 mg/kg, continuous administration for 5 days; after that, saline was intraperitoneally injected, once every day, continuing 10 days.
Negative control group: intraperitoneal injection of saline, once every day, continuing 15 days.
After completion of administration, the experiment was stopped, and mice were sacrificed by cervical dislocation and weighed. The tumors were removed and weighed to calculate the tumor inhibitory rate.

Assay [3] deals with EMT-6 mouse breast cancer cell lines. Kind of assay: In vivo mouse xenograft tumor of EMT-6 breast cancer, chlorogenic acid combined with fulvestrant. Here is the method:
Test drug: chlorogenic acid, fulvestrant.
Test cell lines: EMT-6 mouse breast cancer cell lines.
as §1
Fulvestrant group received drug once by intraperitoneal injection on the next day after inoculation; chlorogenic acid group received drug once every day by intraperitoneal injection from the next day after inoculation, and the drug was successively administrated 15 times; combined medicine group received intraperitoneal injection of fulvestrant once on the next day after inoculation, and intraperitoneal injection of chlorogenic acid once every day from the next day after inoculation; the negative control group received saline by intraperitoneal injection once every day from the next day after inoculation, and saline was continuously given 15 times. When the tumor volume in the negative group was about 0.5 cm^3, the experiment was stopped. The mice were sacrificed by cervical dislocation and weighed. The tumors were removed and weighed to calculate the tumor suppression rate.
(2) If both drugs are combined, Q=E(a+b)/(Ea+Eb−Ea×Eb), in which E(a+b) is the inhibition rate for the combination of two drugs, i.e. the tested combined effect; Ea and Eb is respectively the inhibition rates of two drugs when they are separately used; the denominator (Ea+Eb−Ea×Eb) is the expected combined effect.

[4] abbreviates: abarelix 15 mg·kg^−1 i.p. once every seven days, two doses.
[5] abbreviates: degarelix 30 mg·kg^−1 s.c. once.
Setting [6] is: chlorogenic acid 10 mg·kg^−1 i.p. once daily, 15 times.
[7] abbreviates: chlorogenic acid 20 mg·kg^−1 i.p. once daily, 15 times.
Where [8] appears, read: chlorogenic acid 40 mg·kg^−1 i.p. once daily, 15 times.
The mark [9] stands for this setting: fulvestrant 40 mg·kg^−1 i.p. once.

SMILES strings stand for the structures. Where a SMILES comes first, the peptide text is derived from it. [ ]: non-standard residue; d: D form. The star is where a group is joined. dPhe(4-NHCONH2) = NC(=O)Nc1ccc(C[C@@H](N)C(=O)O)cc1; Dihydroorotyl(S) = O=C1C[C@@H](C(=O)*)NC(=O)N1; dPhe(4-Cl) = N[C@H](Cc1ccc(Cl)cc1)C(=O)O; Phe(4-NH2) = Nc1ccc(C[C@H](N)C(=O)O)cc1; d2Nal = N[C@H](Cc1ccc2ccccc2c1)C(=O)O; Lys(iPr) = CC(C)NCCCC[C@H](N)C(=O)O; NMeY = CN[C@@H](Cc1ccc(O)cc1)C(=O)O; d3Pal = N[C@H](Cc1cccnc1)C(=O)O

As for `CC(=O)N[C@H](Cc1ccc2ccccc2c1)C(=O)N[C@H](Cc1ccc(Cl)cc1)C(=O)N[C@H](Cc1cccnc1)C(=O)N[C@@H](CO)C(=O)N(C)[C@@H](Cc1ccc(O)cc1)C(=O)N[C@H](CC(N)=O)C(=O)N[C@@H](CC(C)C)C(=O)N[C@@H](CCCCNC(C)C)C(=O)N1CCC[C@H]1C(=O)N[C@H](C)C(N)=O` [Abarelix, abarelix] (Ac-[d2Nal][dPhe(4-Cl)][d3Pal]S[NMeY][dN]L[Lys(iPr)]P[dA]-NH2), in assay [1] (abarelix 15 mg·kg^−1 i.p. once), the Tumor inhibitory rate stood at 42.73% and the Tumor weight worked out at 0.886 ± 0.521 g. Besides, in assay [2] (setting [4]), the Tumor inhibitory rate came out at 4.84% and the Tumor weight is on record as 2.339 ± 0.614 g. In assay [2], the “inhibitory rate of mouse xenograft tumor of drug-resistant RM-1 prostate cancer (in words)” value is “weaker, without obvious suppression effect”.
Regarding `CC(=O)N[C@H](Cc1ccc2ccccc2c1)C(=O)N[C@H](Cc1ccc(Cl)cc1)C(=O)N[C@H](Cc1cccnc1)C(=O)N[C@@H](CO)C(=O)N[C@@H](Cc1ccc(NC(=O)[C@@H]2CC(=O)NC(=O)N2)cc1)C(=O)N[C@H](Cc1ccc(NC(N)=O)cc1)C(=O)N[C@@H](CC(C)C)C(=O)N[C@@H](CCCCNC(C)C)C(=O)N1CCC[C@H]1C(=O)N[C@H](C)C(N)=O` [Degarelix, degarelix] (Ac-[d2Nal][dPhe(4-Cl)][d3Pal]S[Phe(4-NH2)](Dihydroorotyl(S))[dPhe(4-NHCONH2)]L[Lys(iPr)]P[dA]-NH2), in assay [1] (setting [5]), the Tumor inhibitory rate came out at 50.61% and the Tumor weight was found to be 0.764 ± 0.218 g.
On to `O=C(/C=C/c1ccc(O)c(O)c1)O[C@@H]1C[C@](O)(C(=O)O)C[C@@H](O)[C@H]1O` [chlorogenic acid, 3-o-caffeoylquinic acid], for which the Tumor inhibitory rate in assay [3] (setting [6]) came to 31.94%; in assay [3] (setting [7]), 36.95%; in assay [3] (setting [8]) it was 42.03%; in assay [1] (setting [6]), 24.05%; in assay [1] (setting [7]), 27.86%; in assay [1] (setting [8]), 28.57%. The Tumor inhibitory rate in assay [2] (chlorogenic acid 10 mg·kg^−1 i.p. once daily for 5 days) is on record as 8.41%. Also, the Tumor weight in assay [3] (chlorogenic acid 10 mg·kg^−1 i.p. once daily, 15 times, BALB/C-nu mice) worked out at 0.897 ± 0.346 g; in assay [3] (chlorogenic acid 20 mg·kg^−1 i.p. once daily, 15 times, BALB/C-nu mice) it was 0.831 ± 0.221 g; in assay [3] (chlorogenic acid 40 mg·kg^−1 i.p. once daily, 15 times, BALB/C-nu mice), 0.764 ± 0.539 g; in assay [1] (chlorogenic acid 10 mg·kg^−1 i.p. once daily, 15 times, Kunming mice), 1.175 ± 0.117 g; in assay [1] (chlorogenic acid 20 mg·kg^−1 i.p. once daily, 15 times, Kunming mice), 1.116 ± 0.358 g; in assay [1] (chlorogenic acid 40 mg·kg^−1 i.p. once daily, 15 times, Kunming mice), 1.105 ± 0.641 g. In addition, the Tumor weight in assay [2] (chlorogenic acid 10 mg·kg^−1 i.p. once daily for 5 days, then saline 10 days) was found to be 2.251 ± 0.581 g. Besides, the “inhibitory rate of mouse xenograft tumor of drug-resistant RM-1 prostate cancer (in words)” value in assay [2] is recorded as “weaker, without obvious suppression effect”.
With `C[C@]12CC[C@@H]3c4ccc(O)cc4C[C@@H](CCCCCCCCC[S+]([O-])CCCC(F)(F)C(F)(F)F)[C@H]3[C@@H]1CC[C@@H]2O` (stereo partly drawn) [Fulvestrant, fulvestrant], in assay [3] (setting [9]), the Tumor inhibitory rate turned out to be 43.40% and the Tumor weight is reported as 0.746 ± 0.311 g.

The record behind these values is patent US11628199B2, “Medicine for combined use in cancer treatment” (SICHUAN JIUZHANG BIOLOGICAL SCIENCE AND TECHNOLOGY CO., LTD, priority 2017, dated 2023).
